Measurements from patent US9957271B2, “Substituted bicyclic aza-heterocycles and analogues as sirtuin modulators” (GlaxoSmithKline, LLC, priority 2012, dated 2018).

Experiments:
[1] = target: T1, SIRT1 (Homo sapiens, UniProt Q96EB6); experiment: TAMRA based mass spectrometry assay of SIRT1 activity; assay type: biochemical; conditions: for Emax: read-out: TAMRA % Fold Act
T1 sequence (Q96EB6 1-747): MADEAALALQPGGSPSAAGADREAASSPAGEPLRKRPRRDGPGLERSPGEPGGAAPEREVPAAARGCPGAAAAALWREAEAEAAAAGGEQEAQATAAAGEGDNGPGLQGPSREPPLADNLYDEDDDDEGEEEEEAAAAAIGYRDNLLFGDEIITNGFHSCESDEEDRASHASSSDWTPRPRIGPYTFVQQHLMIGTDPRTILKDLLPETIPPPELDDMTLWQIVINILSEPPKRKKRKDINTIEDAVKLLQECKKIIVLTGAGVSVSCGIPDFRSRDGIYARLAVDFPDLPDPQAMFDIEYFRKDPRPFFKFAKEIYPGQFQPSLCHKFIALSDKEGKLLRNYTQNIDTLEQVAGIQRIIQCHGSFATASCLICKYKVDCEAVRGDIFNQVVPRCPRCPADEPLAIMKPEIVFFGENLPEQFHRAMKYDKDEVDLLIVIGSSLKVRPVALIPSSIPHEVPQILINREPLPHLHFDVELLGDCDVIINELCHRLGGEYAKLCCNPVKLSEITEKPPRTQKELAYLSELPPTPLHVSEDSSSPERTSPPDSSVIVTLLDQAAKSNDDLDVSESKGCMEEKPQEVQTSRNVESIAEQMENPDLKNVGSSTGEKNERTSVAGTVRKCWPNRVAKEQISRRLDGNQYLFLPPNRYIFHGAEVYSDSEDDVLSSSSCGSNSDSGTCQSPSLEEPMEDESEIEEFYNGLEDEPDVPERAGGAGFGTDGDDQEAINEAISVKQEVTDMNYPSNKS
How it was run: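 Recombinant N-terminal His-tagged human SIRT1 (10 nM, E. coli) incubated 25 min at 25 °C with 0.5 μM 5TMR-labelled p53-derived acetyl-peptide and 120 μM βNAD+ in Tris-acetate pH 8 buffer with DTT and 0.05% BSA, compound at varying concentrations. Stopped with formic acid; deacetylated peptide or OAADPR measured by mass spectrometry relative to DMSO controls.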

[2] = target: T1, SIRT1; experiment: Trp mass spectrometry assay of SIRT1 activity; assay type: biochemical; conditions: for Emax: read-out: Trp % Fold Act
How it was run: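 His-tagged SIRT1 expressed in E. coli BL21(DE3), 10 nM, incubated 25 min at 25° C. with 0.5 μM Ac-RHKK(Ac)W-NH2 peptide and 120 μM βNAD+ in 50 mM HEPES pH 7.5, […], 1 mM DTT, 0.05% BSA; formic acid stop. OAADPR or deacetylated peptide measured by mass spectrometry; EC1.5 and percent maximum activation versus DMSO control.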

[3] = concentration of test compound giving 150% activation of SIRT1, TAMRA peptide substrate
[4] = percent maximum fold activation of SIRT1, TAMRA peptide substrate
[5] = concentration of test compound giving 150% activation of SIRT1, Trp peptide substrate
[6] = percent maximum fold activation of SIRT1, Trp peptide substrate
[7] = TAMRA assay, concentration giving 150% activation of SIRT1
[8] = TAMRA assay, percent maximum fold activation
[9] = Trp assay, concentration giving 150% activation of SIRT1
[10] = Trp assay, percent maximum fold activation
[11] = TAMRA peptide substrate, concentration giving 150% activation of SIRT1
[12] = TAMRA peptide substrate, percent maximum fold activation
[13] = Trp peptide substrate, concentration giving 150% activation of SIRT1
[14] = Trp peptide substrate, percent maximum fold activation

Compound	TAMRA EC1.5 (μM) [1, 7]	Emax [1, 8]	Trp EC1.5 (μM) [2, 9]	Emax [2, 10]	further results
O=C(Nc1ccc(F)cn1)c1cnc2ccc(-c3ccccc3C(F)(F)F)nn12 [Compound 110]	–	–	–	–	TAMRA EC1.5 (μM) [1, 3]: A (EC1.5<1 μM); Emax [1, 4]: ≥ 350%; Trp EC1.5 (μM) [2, 5]: B (EC1.5 1-25 μM); Emax [2, 6]: < 350%
Cc1cc(NC(=O)c2cnc3ccc(-c4ccccc4C(F)(F)F)nn23)ccn1 [Compound 102]	–	–	–	–	TAMRA EC1.5 (μM) [1, 3]: A (EC1.5<1 μM); Emax [1, 4]: ≥ 350%; Trp EC1.5 (μM) [2, 5]: B (EC1.5 1-25 μM); Emax [2, 6]: ≥ 350%
Cc1cnc(NC(=O)c2cnc3ccc(-c4ccccc4OC[C@H](O)CO)nn23)s1 [Compound 820]	B (EC1.5 1-25 μM)	≥ 350%	B (EC1.5 1-25 μM)	< 350%	–
COc1cccc(NC(=O)c2cnn3ccc(-c4ccccc4C(F)(F)F)nc23)n1 [Compound 486]	–	–	–	–	TAMRA EC1.5 [1, 11]: A (EC1.5<1 μM); Emax [1, 12]: ≥ 350%; Trp EC1.5 [2, 13]: A (EC1.5<1 μM); Emax [2, 14]: ≥ 350%
O=C(Nc1ccncn1)c1cnn2ccc(-c3ccccc3OC(F)(F)F)nc12 [Compound 533, N-(pyrimidin-4-yl)-5-(2-(trifluoromethoxy)phenyl)pyrazolo[1,5-a]pyrimidine-3-carboxamide]	–	–	–	–	TAMRA EC1.5 [1, 11]: A (EC1.5<1 μM); Emax [1, 12]: ≥ 350%; Trp EC1.5 [2, 13]: B (EC1.5 1-25 μM); Emax [2, 14]: < 350%
O=C(Nc1ccncn1)c1cnc2ccc(-c3ccccc3OC[C@H](O)CO)nn12 [Compound 833]	B (EC1.5 1-25 μM)	≥ 350%	B (EC1.5 1-25 μM)	< 350%	–
Cc1nc2ccc(-c3ccccc3OC(F)(F)F)nn2c1C(=O)Nc1ccncn1 [Compound 469]	–	–	–	–	TAMRA EC1.5 [1, 11]: A (EC1.5<1 μM); Emax [1, 12]: ≥ 350%; Trp EC1.5 [2, 13]: B (EC1.5 1-25 μM); Emax [2, 14]: ≥ 350%
Cc1cc(NC(=O)c2c(C)nc3c(C)cc(-c4ccccc4OC(F)(F)F)nn23)ccn1 [Compound 481]	–	–	–	–	TAMRA EC1.5 [1, 11]: A (EC1.5<1 μM); Emax [1, 12]: ≥ 350%; Trp EC1.5 [2, 13]: A (EC1.5<1 μM); Emax [2, 14]: ≥ 350%
Cc1ccc(NC(=O)c2c(C)nc3ccc(-c4ccccc4Cl)nn23)nn1 [Compound 742]	A (EC1.5<1 μM)	< 350%	C (EC1.5>25 μM)	< 350%	–
Cc1ncccc1NC(=O)c1cnn2ccc(-c3ccccc3OC(F)(F)F)nc12 [Compound 622]	B (EC1.5 1-25 μM)	< 350%	A (EC1.5<1 μM)	≥ 350%	–
CS(=O)(=O)c1cccc(-c2ccc3ncc(C(=O)Nc4nccs4)n3n2)c1 [Compound 11]	–	–	–	–	TAMRA EC1.5 (μM) [1, 3]: C (EC1.5>25 μM); Emax [1, 4]: < 350%; Trp EC1.5 (μM) [2, 5]: A (EC1.5<1 μM); Emax [2, 6]: ≥ 350%

Further lines, with some results ahead:

TAMRA EC1.5 (μM) [1, 7]	Emax [1, 8]	Trp EC1.5 (μM) [2, 9]	Emax [2, 10]	Compound	further results
B (EC1.5 1-25 μM)	< 350%	C (EC1.5>25 μM)	< 350%	Cc1nc2ccc(-c3ccccc3C(F)(F)F)nn2c1NC(=O)c1ccncn1 [Compound 377]	–
B (EC1.5 1-25 μM)	≥ 350%	B (EC1.5 1-25 μM)	< 350%	O=C(Nc1ccc(OCC(O)CO)nc1)c1cnc2ccc(-c3ccccc3C(F)(F)F)nn12 (stereo not shown) [Compound 263]	–
B (EC1.5 1-25 μM)	≥ 350%	B (EC1.5 1-25 μM)	≥ 350%	Cc1cc2ncc(C(=O)Nc3ccncc3)n2nc1-c1ccccc1C(F)(F)F [Compound 223, 7-methyl-N-(pyridin-4-yl)-6-(2-(trifluoromethyl)phenyl)imidazo[1,2-b]pyridazine-3-carboxamide]	–
B (EC1.5 1-25 μM)	≥ 350%	C (EC1.5>25 μM)	< 350%	Cc1nc2ccc(-c3ccccc3C(F)(F)F)nn2c1NC(=O)c1ccccn1 [Compound 375]	–
A (EC1.5<1 μM)	≥ 350%	B (EC1.5 1-25 μM)	< 350%	Cc1nccc(C(=O)Nc2cnc3ccc(-c4ccccc4C(F)(F)F)nn23)n1 [Compound 389]	–
